Numbers after ± are expanded uncertainties.
How the values were obtained:
[1] = refractive index (Na D-line) (dimensionless); xn = mol fraction of the nth substance listed; conditions: 101 kPa, Liquid, Standard Abbe refractometry
[2] = refractive index (Na D-line) (dimensionless); conditions: 101 kPa, Liquid, Standard Abbe refractometry
[3] = 352.2 K; Liquid; Ebulliometric method (Recirculating still)

O=CO [formic acid] + CC1CCC(=O)O1
[1], x1 = 1
Conditions | refractive index
293.2 K | 1.3714 ± 0.0004
298.2 K | 1.3699 ± 0.0004

CC1CCC(=O)O1 (stereo not drawn) [γ-valerolactone] + O=CO
refractive index, [1]
Conditions | 293.2 K | 298.2 K
x2 = 0 | 1.4339 ± 0.0004 | 1.4316 ± 0.0004
x2 = 0.0697 | 1.4314 ± 0.0004 | 1.4292 ± 0.0004
x2 = 0.1233 | 1.4295 ± 0.0004 | 1.4272 ± 0.0004
x2 = 0.2013 | 1.4265 ± 0.0004 | 1.4245 ± 0.0004
x2 = 0.3394 | 1.421 ± 0.0004 | 1.4191 ± 0.0004
x2 = 0.4898 | 1.4138 ± 0.0004 | 1.4118 ± 0.0004
x2 = 0.593 | 1.4078 ± 0.0004 | 1.4058 ± 0.0004
x2 = 0.6258 | 1.4056 ± 0.0004 | 1.4036 ± 0.0004
x2 = 0.6744 | 1.4021 ± 0.0004 | 1.4002 ± 0.0004
x2 = 0.7799 | 1.3941 ± 0.0004 | 1.3921 ± 0.0004
x2 = 0.8539 | 1.3875 ± 0.0004 | 1.3856 ± 0.0004
x2 = 0.8902 | 1.3839 ± 0.0004 | 1.3821 ± 0.0004
x2 = 0.9828 | 1.3739 ± 0.0004 | 1.3719 ± 0.0004

CC1CCC(=O)O1 (stereo not drawn) [γ-valerolactone]
[2]
Conditions | refractive index
293.2 K | 1.4339 ± 0.0004
298.2 K | 1.4316 ± 0.0004

O=CO [formic acid]
Conditions | vapor or sublimation pressure [kPa]
[3] | 51 ± 4

[2]
Conditions | refractive index
293.2 K | 1.3714 ± 0.0004
298.2 K | 1.3699 ± 0.0004
